Assay results: patent publication US5225528A, “Cyclic hexapeptide oxytocin antagonists” (priority 1990, dated 1993)
Read-outs that look alike come from different tables or passages of the source. Square brackets hold non-standard residues; d marks the D form. Peptide text beside a SMILES is read from it. * marks the point of attachment. dPip(4-aza,4-Cbz) = O=C(O)[C@H]1CN(C(=O)OCc2ccccc2)CCN1; d2Nal = N[C@H](Cc1ccc2ccccc2c1)C(=O)O; dNMeF = CN[C@H](Cc1ccccc1)C(=O)O; Pip = O=C(O)[C@@H]1CCCCN1; dPip = O=C(O)[C@H]1CCCCN1; Cbz = O=C(OCc1ccccc1)*; Boc = CC(C)(C)OC(=O)*; Bn = c1ccc(C*)cc1; OtBu = CC(C)(C)O*; tBu = CC(C)(C)*

Experiments:
[1] = target: T1, AVP-V1 sites (Rattus norvegicus, UniProt P30560); assay: [^3 H]AVP binding to crude membrane preparation of male rat liver (AVP-V1 sites)
T1 construct: crude membrane preparation of male rat liver (AVP-V1 sites); from tissue; host or cells: male rat liver, crude membranes
Procedure: (§1) Nonspecific binding (5-10% of the total binding) was determined using 10 μM unlabeled AVP, and the binding reaction was terminated by filtration as described above for the [^3 H]OT binding assay.

[2] = target: T2, AVP-V2 sites (Rattus norvegicus, UniProt Q00788); assay: [^3 H]AVP binding to crude membrane preparation of male rat kidney medulla (AVP-V2 sites); conditions: for IC50: read-out: Receptor Binding Results IC50 (nM) [^3 H]-AVP-V2; for inhibition at 1 µM: 0.5 h, @ 1,000 (nM), read-out: [^3 H]-AVP-V2: percent inhibition of radioligand at the given concentration
T2 construct: male rat liver (AVP-V1 sites) or kidney medulla (AVP-V2 sites); from tissue; host or cells: male rat kidney medulla, crude membranes
Procedure: as §1

[3] = target: T3, uterine OT receptors (Rattus norvegicus, UniProt P70536); assay: [^3 H]OT binding to uterine OT receptors, crude membrane preparation of uteri from DES-treated rats; conditions: for inhibition at 1 µM: @ 1,000 (nM); for IC50: rat uterus membranes, 1 nM [^3 H]OT, read-out: Receptor Binding Results IC50 (nM) [^3 H]OT
T3 construct: from tissue; host or cells: uterus of DES-treated rats, crude membranes
T3 sequence (P70536 1-388): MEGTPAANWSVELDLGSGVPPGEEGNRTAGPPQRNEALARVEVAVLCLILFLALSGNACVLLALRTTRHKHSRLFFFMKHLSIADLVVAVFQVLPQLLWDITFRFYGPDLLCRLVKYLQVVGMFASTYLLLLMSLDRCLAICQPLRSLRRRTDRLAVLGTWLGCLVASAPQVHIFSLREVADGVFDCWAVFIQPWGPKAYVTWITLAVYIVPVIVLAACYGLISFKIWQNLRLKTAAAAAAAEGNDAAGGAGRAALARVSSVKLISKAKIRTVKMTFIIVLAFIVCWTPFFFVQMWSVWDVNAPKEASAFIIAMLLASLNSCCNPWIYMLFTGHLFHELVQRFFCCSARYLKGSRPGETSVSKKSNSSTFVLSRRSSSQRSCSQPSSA
Procedure: Competition studies were conducted at equilibrium (60 minutes; 22° C.) using 1 nM [^3 H]OT in the following assay buffer: 50 mM Tris-HCl, 5 mM MgCl2, and 0.1% BSA, pH 7.4.

[4] = Receptor Binding Results IC50 (nM) [^3 H]-AVP-V1
[5] = rat kidney medulla membranes, 2 nM [^3 H]AVP
[6] = 1 h, read-out: [^3 H]OT: percent inhibition of radioligand at the given concentration
[7] = read-out: Receptor Binding Results IC50 (nM) [^3 H]-AVP-V1

T1 sequence (P30560 whole entry): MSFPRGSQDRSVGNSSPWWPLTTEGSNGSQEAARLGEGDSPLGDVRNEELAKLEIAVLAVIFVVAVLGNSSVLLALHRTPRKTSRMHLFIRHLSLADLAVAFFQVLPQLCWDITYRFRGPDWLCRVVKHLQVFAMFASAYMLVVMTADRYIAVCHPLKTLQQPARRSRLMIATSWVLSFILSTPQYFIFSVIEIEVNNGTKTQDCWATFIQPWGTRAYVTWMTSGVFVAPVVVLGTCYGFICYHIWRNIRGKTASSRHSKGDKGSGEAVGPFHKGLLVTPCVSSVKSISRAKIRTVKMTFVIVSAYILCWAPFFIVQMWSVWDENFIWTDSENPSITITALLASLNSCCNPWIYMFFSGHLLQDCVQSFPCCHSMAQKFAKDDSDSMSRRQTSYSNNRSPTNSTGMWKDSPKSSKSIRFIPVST
T2 sequence (Q00788 whole entry): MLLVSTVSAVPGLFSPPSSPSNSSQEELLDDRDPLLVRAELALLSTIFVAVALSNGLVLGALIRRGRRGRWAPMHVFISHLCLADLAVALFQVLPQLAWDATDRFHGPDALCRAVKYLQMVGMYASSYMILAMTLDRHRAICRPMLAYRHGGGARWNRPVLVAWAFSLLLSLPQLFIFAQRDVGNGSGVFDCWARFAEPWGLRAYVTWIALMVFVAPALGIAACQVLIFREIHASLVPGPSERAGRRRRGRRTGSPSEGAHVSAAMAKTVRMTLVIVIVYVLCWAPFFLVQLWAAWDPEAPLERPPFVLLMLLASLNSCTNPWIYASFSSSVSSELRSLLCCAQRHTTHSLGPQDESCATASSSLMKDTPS

SMILES	IC50 [1, 4] [nM]	IC50 [2, 5] [nM]	inhibition at 1 µM [3, 6] [%]	IC50 [3] [nM]	further results
CC[C@H](C)[C@@H]1NC(=O)[C@@H](Cc2ccc(OC(C)(C)C)cc2)NC(=O)[C@@H]2CCCN2C(=O)[C@@H](Cc2ccccc2)N(C)C(=O)[C@H](CCCCNC(=O)OC(C)(C)C)NC(=O)[C@H]2CCCCN2C1=O [Example 144, C-[D-(O-t-Butyl)Tyrosiniyl-L-isoleucyl-D-pipecolyl-L(N-t-butyloxycarbonyl)lysyl-D-(N-methyl)phenylalanyl-L-prolyl]] (cyclo(I[dPip]K(Boc)[dNMeF]P[dY](tBu)))	> 10000	10000	67	–	–
CC[C@H](C)[C@@H]1NC(=O)[C@@H](Cc2ccc(OCc3ccccc3)cc2)NC(=O)[C@@H]2CCCN2C(=O)[C@@H](Cc2ccccc2)N(C)C(=O)[C@H](CCCCNC(=O)OC(C)(C)C)NC(=O)[C@H]2CCCCN2C1=O [Example 142, C-[D-(O-Benzyl)-tyrosinyl-L-isoleucyl-D-pipecolyl-L-(N-t-butyloxycarbonyl)lysyl-D-(N-methyl)phenylalanyl-L-prolyl]] (cyclo(I[dPip]K(Boc)[dNMeF]P[dY](Bn)))	> 10000	> 10000	12	–	–
CC[C@H](C)[C@@H]1NC(=O)[C@@H](Cc2ccc3ccccc3c2)NC(=O)[C@@H]2CCCN2C(=O)[C@@H](Cc2c[nH]cn2)NC(=O)[C@H]2CN(C(=O)OCc3ccccc3)CCN2C(=O)[C@H]2CCCCN2C1=O [Example 160, c-[D-2-Naphthylalanyl-L-isoleucyl-D-pipecolyl-D-piperazin-2-yl-(4-carbobenzyloxy)-D-hystidyl-L-prolyl]] (cyclo(I[dPip][dPip(4-aza,4-Cbz)][dH]P[d2Nal]))	> 1000	–	–	–	inhibition at 1 µM [2]: 66%; inhibition at 0.01 µM ([3]; 1 h, @ 10 (nM), read-out: [^3 H]OT: percent inhibition of radioligand at the given concentration): 53%
CC[C@H](C)[C@@H]1NC(=O)[C@@H](Cc2ccc3ccccc3c2)NC(=O)[C@@H]2CCCN2C(=O)[C@@H](Cc2ccccc2)N(C)C(=O)[C@H](CCCCNC(=O)OC(C)(C)C)NC(=O)[C@H]2CCCCN2C1=O [Example 138, c-[D-2-Naphthylalanyl-L-isoleucyl-D-pipecolyl-L-(N-t-butyloxycarbonyl)lysyl-D-(N-methyl)phenylalanyl-L-prolyl]] (cyclo(I[dPip]K(Boc)[dNMeF]P[d2Nal]))	10000	–	–	–	inhibition at 1 µM [2]: 42%; inhibition at 0.1 µM ([3]; 1 h, @ 100 (nM), read-out: [^3 H]OT: percent inhibition of radioligand at the given concentration): 50%
CC[C@H](C)[C@@H]1NC(=O)C(Cc2c[nH]c3ccc(F)cc23)NC(=O)[C@@H]2CCCN2C(=O)[C@@H](Cc2c[nH]cn2)NC(=O)[C@@H]2CCCCN2C(=O)[C@H]2CCCCN2C1=O (single isomer, unassigned) [157 lower Rf]	–	–	6	–	IC50 [1, 7]: 13000 nM; IC50 [2]: 26000 nM
CC[C@H](C)[C@@H]1NC(=O)[C@@H](Cc2ccccc2)NC(=O)[C@@H]2CCCN2C(=O)[C@@H](Cc2c[nH]c3ccccc23)NC(=O)[C@@H]2CCCCN2C(=O)[C@H]2CCCCN2C1=O [Example 25, Cyclo[D-phenylalanyl-L-isoleucyl-D-pipecolyl-L-pipecolyl-D-trytophanyl-L-prolyl]] (cyclo(I[dPip][Pip][dW]P[dF]))	–	–	–	120	IC50 [1, 7]: 3000 nM; IC50 [2]: 3900 nM
CC[C@H](C)[C@@H]1NC(=O)[C@@H](Cc2c[nH]c3ccccc23)NC(=O)[C@@H]2CCCN2C(=O)[C@@H](Cc2ccccc2)N(C)C(=O)[C@H](CCCCNC(=O)OCc2ccccc2)NC(=O)[C@H]2CCCCN2C1=O [Example 35, Cyclo[D-tryptophanyl-L-isoleucyl-D-pipecolyl-L-(carbobenzyloxy)lysyl-D-(N^α Methyl)phenylalanyl-L-prolyl]] (cyclo(I[dPip]K(Cbz)[dNMeF]P[dW]))	10000	10000	–	> 100	–
CC[C@H](C)[C@@H]1NC(=O)[C@@H](Cc2ccccc2)NC(=O)[C@@H]2CCCN2C(=O)[C@@H](Cc2ccccc2)N(C)C(=O)[C@H](CC(=O)OC(C)(C)C)NC(=O)[C@H]2CCCCN2C1=O [Example 115, c-[D-Phenylalanyl-L-isoleucyl-D-pipecolyl(O-tert-butyl)-L-aspartyl-N-methyl-D-phenylalanyl-L-prolyl]] (cyclo(D(OtBu)[dNMeF]P[dF]I[dPip]))	> 10000	10000	–	460	–
